Measurements from patent US20100200049A1, “BIOHYBRID SYSTEM FOR HYDROGEN PRODUCTION” (Alliance for Sustainable Energy, LLC, priority 2008, published 2010).

What was measured:
PS II [1] = target: T1, PS II (Thermosynechococcus vestitus, UniProt P0A444); test: Photocurrent of GC-PS II electrode wired to hydrogenase electrode, with DCMU added; assay type: biochemical, Thermosynechococcus elongatus; settings: 5 μM and 10 μM DCMU in working solution; red light 660 nm, 10 s light/40 s dark; all oxidizing potentials tested (+0.2 to +1.0 V)
T1 construct: PS II complexes were isolated from Thermosynechococcus elongatus; from tissue; host or cells: Thermosynechococcus elongatus cells (photosynthetic membranes); method of Schatz and Witt 1984 with modifications
Method: (§1) PS II complexes were isolated from Thermosynechococcus elongatus according to methods described by Schatz and Witt (1984, Extraction and characterisation of oxygen-evolving Photosystem II complexes from a thermophilic cyanobacterium Synechococcus sp. Photobiochem. Photobiophys. 7: 1-14) with modifications.
(§2) The PS II electrode was prepared by depositing 5 μl of 1 mM isolated PS II complex preparation onto the electrode in almost complete darkness, with a weak non-actinic green light present, and dried overnight at +4° C. in darkness. A pyrolytic graphite edge (PGE) electrode with a diameter of 4.8 mm or a glassy carbon (GC) electrode with a diameter of 3 mm was used. Directly before the experiment, the surface of the electrode containing dried PS II sample was covered with a dialysis membrane (12000-14000 MW cutoff) that was held in place by o-ring.
The photocurrent was generated by illumination of the PS II electrode by red LED (660 nm) or white LED. The following light/dark cycle was used: 10 s light, 40 s dark, unless specified otherwise.
The experiments in which the PS II electrode was tested by addition of DCMU were performed using the GC-PS II electrode, wired to a 4.8 mm diameter PGE-hydrogenase electrode. […]

PS II [2] = target: T1, PS II; test: Photocurrent of PGE-PS II electrode with soluble electron mediator; assay type: biochemical, Thermosynechococcus elongatus; settings: DMBQ 60 μM vs no mediator; +0.4 V vs Ag/AgCl; red light 660 nm, 10 s light/40 s dark
Method: as §1, §2
A 50 mM stock solution of DMBQ in ethanol was prepared fresh before the experiment and used as an electron mediator for PS II in various concentrations. […]

Row | Compound | effect on generation of photocurrent by the PS II electrode (PS II [1]) | effect on amplitude of photocurrent generated by the PS II electrode (PS II [2])
1 | CN(C)C(=O)Nc1ccc(Cl)c(Cl)c1 [DCMU] | inhibited the generation of photocurrent | –
2 | CC1=CC(=O)C=C(C)C1=O [DMBQ, 2,6-dimethyl 1,4-benzoquinone] | – | dramatically improved the amplitude of photocurrent
